Test results taken from patent US20230197192A1, “SELECTING NEOANTIGENS FOR PERSONALIZED CANCER VACCINE” (AMAZON TECHNOLOGIES, INC., priority 2020, published 2023).
Where no end group is shown, it is not given here.

Assay: Visible dissolution of peptides in DMSO / 0.9% NaCl for pool formulation
Type: physicochemical
Conditions: Peptide Synthesis Engineering Run Batch for Sample GGGGG; visual appearance of the peptide solution (Clear / Semi Cloudy / Cloudy)
Protocol: Groups of peptides are selected and pooled. Up to four (4) pools with not more than (NMT) five (5) peptides in each pool were prepared. Each peptide was dissolved in 5.538% (v/v) DMSO followed by 0.9% NaCl solution, at a concentration of each peptide at 0.4158 mg/mL. Peptides which were visibly dissolved were accepted for that group's pool. Upon successful pooling of all peptides within a group, the pool was filtered through a 0.2 μm Nylon filter. Peptides were shipped in sterile tubes and labeled with Pool name, lot #, components, manufacturing data, quantity/concentration and storage conditions.

Compound	Visual solubility (appearance of the peptide solution)
NSLQNQALQTLQERLHEADAT [GGGGG.20]	Clear
RPGEDPSLHGIVKEQL [GGGGG.10]	Clear
STAPAEATLPKPGEAEAP [GGGGG.16]	Clear
SPRVAPGSAPPWPALRSLLH [GGGGG.1]	Clear
VLGTSAPGSSRLAAVDLGG [GGGGG.2]	Clear
PSAPQQEGVASKEKEEV [GGGGG.4]	Clear

Further lines, results first:

Visual solubility (appearance of the peptide solution)	Compound
Clear	RVLIPDLQL [GGGGG.42]
Clear	TSAPGSSRLAA [GGGGG.47]
Clear	RFIGPLPREGSVGSTSDYVSQS [GGGGG.22]
Clear	AAIQEKKEI [GGGGG.39]
Clear	LIKPPAHTSAILTVLR [GGGGG.30]
Clear	LDRQHVQHQLLVILKELRK [GGGGG.34]
Clear	GALPVASPASL [GGGGG.45]
Clear	VDLKFPASVPTGAQDLISKL [GGGGG.25]
Clear	SAPGSSRLAA [GGGGG.46]
Clear	TVDMLQCLRFPGLALPHTRAPSPLG [GGGGG.35]
Clear	SAPGSSRLAAV [GGGGG.36]
Clear	MSYELKCAQEL [GGGGG.49]

Same assay, conditions: Peptide synthesis engineering run batch for sample DDDDD_2020; appearance of the solution

Solubility	Compound
Cloudy	DPRLVIFSGCATRLFEA [DDDDD.11]
Clear	WLPELPSLPSNGDPPAICE [DDDDD.15]
Clear	MSKPKWPLEDEISKPEVP [DDDDD.3]
Clear	FEAPGFNTTTA [DDDDD.45]
Clear	TWHRGDAL [DDDDD.34]
Clear	RRWRKLYRANSHLFQAKRFN [DDDDD.24]
Clear	LLGTVDKHSVKVTNCFSVPHN [DDDDD.16]
Clear	NQPKIGGPLGTGAFEAPGFNTTTATLGF [DDDDD.4]

Compound	Solubility
CC(C)C[C@H](NC(=O)[C@@H](NC(=O)[C@H](Cc1c[nH]c2ccccc12)NC(=O)[C@H](C)NC(=O)[C@H](C)NC(=O)[C@@H](NC(=O)[C@H](Cc1ccccc1)NC(=O)[C@H](CCCCN)NC(=O)[C@H](C)N)C(C)C)[C@@H](C)O)C(=O)N[C@@H](CCCCN)C(=O)N[C@@H](C)C(=O)N[C@@H](C)C(=O)N[C@@H](C)C(=O)O [DDDDD.46]	Clear

Same assay, conditions: Peptide synthesis engineering run batch for sample FFFFF; appearance of the solution

Solubility	Compound
Clear	VGRAWDAITDHLVGLCISKSP [FFFFF.19]
Clear	YGRTVVPFLVPGTSQLGQ [FFFFF.9]
Clear	TPSAPEGYDLKIGLFLAPRRGSLPD [FFFFF.17]
Clear	PLNPPASTAFSQEPHSGSPA [FFFFF.24]
Clear	YIHTSVSQDFSQSVPGTTSSPL [FFFFF.10]
Clear	EDTGQDMLALFLRTNRQAAK [FFFFF.8]
Clear	TGQDMLAL [FFFFF.36]
Clear	LSPYPEHL [FFFFF.50]
Cloudy	RNLYISGFSLCFWLVLRRLVT [FFFFF.26]

Compound	Solubility
CC(C)C[C@H](NC(=O)[C@@H](NC(=O)[C@H](Cc1c[nH]c2ccccc12)NC(=O)[C@H](C)NC(=O)[C@H](C)NC(=O)[C@@H](NC(=O)[C@H](Cc1ccccc1)NC(=O)[C@H](CCCCN)NC(=O)[C@H](C)N)C(C)C)[C@@H](C)O)C(=O)N[C@@H](CCCCN)C(=O)N[C@@H](C)C(=O)N[C@@H](C)C(=O)N[C@@H](C)C(=O)O [FFFFF.51]	Clear
